Source: patent US10358453B2, “Antiviral compounds” (priority 2015, dated 2019)
Where two headings read alike, the source gives them in different places.

Legend:
[1] = Cytotoxicity determination (CCK-8, without addition of virus); assay type: cell-based; settings: human, HEp-2 cells (uninfected), no virus, Table C = greater than 100 μM, Table D = equal to or less than 100 μM and greater than 10 μM
Procedure: CPE reduction assays are performed as described by Sidwell and Huffman et al., Appl. Microbiol. (1971) 22(5):797-801 with slight modifications. HEp-2 cells (ATCC#, CCL-23) are seeded at a density of 1,500 cells/30 μL/well into the 384-well cell plate(s) (Corning#3701) one day prior to the assay. Compounds are added into 384-well cell plates by Labcyte POD 810 Plate Assembler system. Each of the test compounds is provided to duplicate wells of a 384-well cell plate at final concentrations starting from 100 μM or 1 μM using 1/3 stepwise dilutions for 9 points. Quick-thaw Respiratory Syncytial Virus (RSV) long strain (ATCC#VR-26) stock in a 37° C. water bath. Place on ice until ready to use. Viruses are diluted to the concentration of 100 TCID50/30 μL with medium and 30 μl diluted RSV are added into related wells of 384-well cell plates. For each plate, sixteen wells are set aside as uninfected, untreated cell controls (CC), and nine wells per test plate receive virus only as a control for virus replication (VC). The final DMSO concentration of all wells is 1%. Place the plates at 37° C., 5% CO2 for 5 days.
In order to determine the compound cytotoxicity, in parallel, each of the compounds is applied to duplicate wells in a 384-well cell plate at serial final concentrations starting from 100 μM using ½ stepwise dilutions for 7 points without addition of virus. Incubate the cells at 37° C., 5% CO2 for 5 days. Add 6 μL CCK-8 into each well and incubate in a CO2 incubator at 37° C. for 3-4 h. Read the plates to obtain the optical densities which are used to calculate 50% cytotoxicity concentration (CC50).

[2] = system: RSV subgenomic replicon 395 HeLa and APC126; experiment: RSV subgenomic replicon assay (Renilla luciferase); assay type: cell-based; settings: human respiratory syncytial virus; RSV replicon cells (395 HeLa 7 days or APC126 3 days); Table G = less than 1 μM, Table H = equal to or higher than 1 μM and less than 50 μM
Source text: The RSV subgenomic replicon 395 HeLa and APC126 were licensed from Apath (Brooklyn, N.Y.) and were originally developed by Dr. Mark Meeples of Center for Vaccines & Immunity, the Research Institute at Nationwide Children's Hospital in Columbus, Ohio. To generate subgenomic RSV replicon, three glycoprotein genes, those for SH, G, and F, from a full-length recombinant GFP-expressing (rg) RSV antigenomic cDNA were deleted. In their place, a blasticidin S deaminase (bsd) gene was inserted. Through multiple steps, the RSV replicon was established in HeLa cells (395 Hela) or BHK cells (APC126). Both 395 HeLa and APC126 cells were cultured in Dulbecco's Modified Eagle Medium (DMEM) containing 4500 mg/L D-glucose, L-glutamine, and 110 mg/L sodium pyruvate (Invitrogen, Cat. #11995-040). The medium was further supplemented with 10% (v/v) fetal bovine serum (FBS) (Mediatech, Cat. #35-010-CV), 1% (v/v) penicillin/streptomycin (Mediatech, Cat. #30-002-CI), and 10 μg/mL of Blasticidin (BSD) (Invivogen, Cat. code ant-bl-1). Cells were maintained at 37° C. in a humidified 5% CO2 atmosphere.
Determination of 50% inhibitory concentration (EC50), 90% inhibitory concentration (EC90) and 50% cytotoxic concentration (CC50) in RSV replicon cells were performed by the following procedure. On the first day, 5000 RSV replicon cells per well were plated in a 96-well plate. On the following day, compounds to be tested were solubilized in 100% DMSO to 100X the desired final testing concentration. Each compound was serially diluted (1:3) up to 9 distinct concentrations. Compounds in 100% DMSO were reduced to 10% (v/v) DMSO by diluting 1:10 in cell culture media. A 10 μL sample of the compounds diluted to 10% (v/v) DMSO with cell culture media was used to treat the RSV replicon cells in 96-well format. The final DMSO concentration was 1% (v/v). Cells were incubated with compounds for 7 days (for 395Hela) or 3 days (for APC126) at 37° C. in a 5% CO2 atmosphere. In each assay, positive control that was previously characterized in the RSV replicon assay was included.
The Renilla Luciferase Assay System (Promega, Cat. #E2820) was used to measure anti-RSV replicon activity. Assay plates were set up as stated above. Luminescence was recorded using a Perkin Elmer multilabel counter Victor3V. EC50, the concentration of the drug required for reducing RSV replicon RNA by 50% in relation to the untreated cell control value, was calculated from the plot of percentage reductions of the […] against the drug concentrations using the Microsoft Excel forecast function.

recombinant RSV complex = recombinant RSV complex (Human respiratory syncytial virus A, UniProt P28887); experiment: RSV polymerase inhibition assay; assay type: biochemical; settings: 2 h at 30° C., Table E = <1 μM, Table F = <50 μM
Procedure: Standard RSV polymerase assays were conducted in the presence of 10 nM recombinant RSV complex in a reaction buffer containing Tris-HCl pH7.5, 6 mM MgCl2, and other additives and substrates including RNA oligonucleotides and radionucleotides. Standard reactions were incubated in 96-well plate format for 2 h at 30° C., in the presence of increasing concentration of inhibitor. The reaction was stopped with 90 μL of 0.1M EDTA, and the reaction product was transferred to a “reading” 96-well plate. After washing of the plate, radiolabeled RNA products were detected according to standard procedures with a Trilux Topcount scintillation counter. The compound concentration at which the enzyme-catalyzed rate was reduced by 50% (IC50) was calculated by fitting the data to a non-linear regression (sigmoidal).

[3] = 10 nM recombinant RSV complex, read-out: IC50

Sequence of recombinant RSV complex (P28887 whole entry): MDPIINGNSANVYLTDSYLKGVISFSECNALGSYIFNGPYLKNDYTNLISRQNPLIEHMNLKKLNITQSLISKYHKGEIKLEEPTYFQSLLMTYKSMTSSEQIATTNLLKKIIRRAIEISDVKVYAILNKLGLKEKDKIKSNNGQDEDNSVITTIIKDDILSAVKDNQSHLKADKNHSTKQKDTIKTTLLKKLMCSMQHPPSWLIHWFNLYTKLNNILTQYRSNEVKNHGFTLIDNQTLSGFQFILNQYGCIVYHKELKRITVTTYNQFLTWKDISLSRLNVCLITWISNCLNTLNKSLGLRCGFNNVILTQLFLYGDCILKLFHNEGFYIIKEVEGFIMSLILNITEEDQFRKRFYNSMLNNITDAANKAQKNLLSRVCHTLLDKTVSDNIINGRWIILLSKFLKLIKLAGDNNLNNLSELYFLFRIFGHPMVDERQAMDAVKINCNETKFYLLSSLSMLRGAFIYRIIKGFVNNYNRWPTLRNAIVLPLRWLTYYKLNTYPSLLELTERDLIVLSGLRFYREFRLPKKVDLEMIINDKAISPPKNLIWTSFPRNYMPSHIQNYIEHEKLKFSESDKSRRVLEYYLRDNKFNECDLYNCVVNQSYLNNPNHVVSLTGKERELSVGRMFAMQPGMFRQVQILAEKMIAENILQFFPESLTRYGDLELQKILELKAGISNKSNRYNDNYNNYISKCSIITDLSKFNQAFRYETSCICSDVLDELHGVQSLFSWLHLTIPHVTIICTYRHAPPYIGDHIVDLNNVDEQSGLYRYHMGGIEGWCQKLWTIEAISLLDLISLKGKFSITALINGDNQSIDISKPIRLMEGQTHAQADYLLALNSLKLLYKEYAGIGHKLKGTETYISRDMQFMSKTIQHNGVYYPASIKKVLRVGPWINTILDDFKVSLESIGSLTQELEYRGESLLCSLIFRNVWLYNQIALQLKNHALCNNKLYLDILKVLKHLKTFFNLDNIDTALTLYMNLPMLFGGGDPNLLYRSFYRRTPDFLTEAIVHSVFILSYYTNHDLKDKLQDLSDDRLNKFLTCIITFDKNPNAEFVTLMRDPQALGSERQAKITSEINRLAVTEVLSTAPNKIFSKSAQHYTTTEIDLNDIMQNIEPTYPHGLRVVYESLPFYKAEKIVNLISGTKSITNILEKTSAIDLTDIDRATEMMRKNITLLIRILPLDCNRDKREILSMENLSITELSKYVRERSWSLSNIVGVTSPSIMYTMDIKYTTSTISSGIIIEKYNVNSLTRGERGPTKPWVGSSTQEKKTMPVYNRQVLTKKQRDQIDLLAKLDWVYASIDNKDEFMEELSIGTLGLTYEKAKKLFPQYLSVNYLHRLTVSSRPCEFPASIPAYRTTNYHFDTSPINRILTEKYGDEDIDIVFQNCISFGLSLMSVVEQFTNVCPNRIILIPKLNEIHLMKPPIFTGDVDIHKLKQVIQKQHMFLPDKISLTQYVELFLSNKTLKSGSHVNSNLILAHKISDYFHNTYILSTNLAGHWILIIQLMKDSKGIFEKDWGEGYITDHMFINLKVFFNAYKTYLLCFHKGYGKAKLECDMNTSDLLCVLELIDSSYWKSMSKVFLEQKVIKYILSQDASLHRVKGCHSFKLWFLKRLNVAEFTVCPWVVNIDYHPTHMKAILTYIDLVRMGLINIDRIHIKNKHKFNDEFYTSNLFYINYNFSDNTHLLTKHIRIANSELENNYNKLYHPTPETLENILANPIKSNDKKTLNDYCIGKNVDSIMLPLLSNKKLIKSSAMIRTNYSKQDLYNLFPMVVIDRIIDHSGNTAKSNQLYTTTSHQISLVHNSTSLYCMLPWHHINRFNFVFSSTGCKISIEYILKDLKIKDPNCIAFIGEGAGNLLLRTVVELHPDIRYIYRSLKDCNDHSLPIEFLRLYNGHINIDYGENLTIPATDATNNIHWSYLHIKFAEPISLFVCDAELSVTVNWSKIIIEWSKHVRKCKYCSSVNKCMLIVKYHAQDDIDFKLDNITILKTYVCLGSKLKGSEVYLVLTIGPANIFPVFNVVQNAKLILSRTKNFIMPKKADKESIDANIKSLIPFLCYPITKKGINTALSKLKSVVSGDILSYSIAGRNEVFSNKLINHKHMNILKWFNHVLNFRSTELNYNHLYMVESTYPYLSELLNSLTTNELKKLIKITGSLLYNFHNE
Sequence of recombinant RSV complex (P03421 whole entry, further chain): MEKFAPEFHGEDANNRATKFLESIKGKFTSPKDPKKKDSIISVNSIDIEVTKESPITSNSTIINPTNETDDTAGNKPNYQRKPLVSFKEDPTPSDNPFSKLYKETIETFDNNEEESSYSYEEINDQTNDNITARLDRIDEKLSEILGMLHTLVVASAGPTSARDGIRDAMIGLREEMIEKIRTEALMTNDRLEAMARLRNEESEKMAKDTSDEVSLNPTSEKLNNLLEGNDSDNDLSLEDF

SMILES: COc1cc(C(=O)NCC(O)(c2cc3c(c(-c4ccc(F)cc4)n2)CCC3(C)N)C(F)(F)F)ccc1OCCO (stereo not drawn) [Compound 73]
- CC50 at 5 days [1]: 10 to 100 µM
- EC50 [2]: < 1 µM
- IC50 (recombinant RSV complex; [3]): < 1 µM

SMILES: COc1cc(C(=O)NCC(O)(c2cc3c(c(-c4ccc(F)cc4)n2)OCC3(C)N)C(F)(F)F)ccc1NC1CC1 (stereo not drawn) [Compound 31]
- CC50 at 5 days [1]: 10 to 100 µM
- EC50 [2]: < 1 µM
- IC50 (recombinant RSV complex; [3]): < 1 µM

SMILES: COc1cc(C(=O)NCC(O)(c2cc3c(c(-c4ccc(F)cc4)n2)OCC3(C)N)C(F)(F)F)cc2c1NC(=O)CC2 (stereo not drawn) [Compound 11]
- CC50 at 5 days [1]: 10 to 100 µM
- EC50 [2]: < 1 µM
- IC50 (recombinant RSV complex; [3]): < 1 µM

SMILES: COc1cc(C(=O)NC[C@@](O)(c2cc3c(c(-c4ccc(F)cc4)n2)OC[C@@]3(C)N)C(F)(F)F)cc(OC)c1OCCO [Compound 67]
- CC50 at 5 days [1]: > 100 µM
- EC50 [2]: < 1 µM
- IC50 (recombinant RSV complex; IC50, 10 nM recombinant RSV complex): < 50 µM

SMILES: COc1cc(C(=O)NC[C@@](O)(c2cc3c(c(-c4ccc(F)cc4)n2)OC[C@@]3(C)N)C(F)(F)F)cc2nc[nH]c12 [Compound 95]
- CC50 at 5 days [1]: 10 to 100 µM
- EC50 [2]: < 1 µM
- IC50 (recombinant RSV complex; [3]): < 1 µM

SMILES: C[C@@]1(N)COc2c1cc([C@](O)(CNC(=O)c1cc(OC(F)F)c3[nH]ccc3c1)C(F)(F)F)nc2-c1ccc(F)cc1 [Compound 94]
- CC50 at 5 days [1]: 10 to 100 µM
- EC50 [2]: < 1 µM
- IC50 (recombinant RSV complex; [3]): < 1 µM

SMILES: COc1cc(C(=O)NC[C@@](O)(c2cc3c(c(-c4ccc(F)cc4)n2)NC[C@@]3(C)N)C(F)(F)F)cc2cccnc12 [Compound 74]
- CC50 at 5 days [1]: 10 to 100 µM
- EC50 [2]: < 1 µM
- IC50 (recombinant RSV complex; [3]): < 1 µM

SMILES: COc1ccc(C(=O)NCC(O)(c2cc(C(C)(C)N)cc(-c3ccc(F)cc3)n2)C(F)(F)F)cc1OCCO (stereo not drawn) [Compound 37]
- CC50 at 5 days [1]: > 100 µM
- EC50 [2]: < 1 µM
- IC50 (recombinant RSV complex; [3]): < 1 µM

SMILES: COc1nc(C(=O)NC[C@@](O)(c2cc3c(c(-c4ccc(F)cc4)n2)OC[C@@]3(C)N)C(F)(F)F)cc2c1NC(=O)C2 [Compound 93]
- CC50 at 5 days [1]: 10 to 100 µM
- EC50 [2]: 1 to 50 µM
- IC50 (recombinant RSV complex; [3]): < 50 µM

SMILES: CC1(N)COc2c1cc(C(O)(CNC(=O)c1ccc(OCCO)c(OC3CC3)c1)C(F)(F)F)nc2-c1ccc(F)cc1 (stereo not drawn) [Compound 24]
- CC50 at 5 days [1]: 10 to 100 µM
- EC50 [2]: < 1 µM
- IC50 (recombinant RSV complex; [3]): < 1 µM

SMILES: COc1cc(C(=O)NC[C@@](O)(c2cc3c(c(-c4ccc(F)cc4)n2)OC[C@@]3(C)NO)C(F)(F)F)ccc1OC[C@@H](C)O [Compound 123]
- CC50 at 5 days [1]: 10 to 100 µM
- EC50 [2]: < 1 µM
- IC50 (recombinant RSV complex; [3]): < 1 µM

SMILES: COc1cnc(C(=O)NCC(O)(c2cc3c(c(-c4ccc(F)cc4)n2)OCC3(C)N)C(F)(F)F)cc1OC (stereo not drawn) [Compound 20]
- CC50 at 5 days [1]: 10 to 100 µM
- EC50 [2]: < 1 µM
- IC50 (recombinant RSV complex; [3]): < 1 µM

SMILES: COc1cc(C(=O)NC[C@@](O)(c2cc3c(c(-c4ccc(F)cc4)n2)OC[C@@]3(C)N)C(F)(F)F)cc(F)c1OC[C@@H](C)O [Compound 122]
- CC50 at 5 days [1]: 10 to 100 µM
- EC50 [2]: < 1 µM
- IC50 (recombinant RSV complex; [3]): < 1 µM

SMILES: COc1cc(C(=O)NC[C@](O)(c2cc3c(c(-c4ccc(F)cc4)n2)NCC[C@]3(C)N)C(F)(F)F)ccc1OC[C@@H](C)O [Compound 101]
- CC50 at 5 days [1]: 10 to 100 µM
- EC50 [2]: < 1 µM
- IC50 (recombinant RSV complex; [3]): < 1 µM
